Results published in patent US20210228560A1 (Centogene IP GmbH, priority 2011, published 2021).
Positions count from the first letter of the chain named. Where “and” joins values, the source holds several entries; their conditions need not be identical. Equal values may be shown once. Read-outs that look alike come from different tables or passages of the source.

Key:
hexosaminidase A = target: T1, hexosaminidase A (Homo sapiens, UniProt P06865+P07686); conditions: cited from earlier work
T1 sequence (P06865 89-529): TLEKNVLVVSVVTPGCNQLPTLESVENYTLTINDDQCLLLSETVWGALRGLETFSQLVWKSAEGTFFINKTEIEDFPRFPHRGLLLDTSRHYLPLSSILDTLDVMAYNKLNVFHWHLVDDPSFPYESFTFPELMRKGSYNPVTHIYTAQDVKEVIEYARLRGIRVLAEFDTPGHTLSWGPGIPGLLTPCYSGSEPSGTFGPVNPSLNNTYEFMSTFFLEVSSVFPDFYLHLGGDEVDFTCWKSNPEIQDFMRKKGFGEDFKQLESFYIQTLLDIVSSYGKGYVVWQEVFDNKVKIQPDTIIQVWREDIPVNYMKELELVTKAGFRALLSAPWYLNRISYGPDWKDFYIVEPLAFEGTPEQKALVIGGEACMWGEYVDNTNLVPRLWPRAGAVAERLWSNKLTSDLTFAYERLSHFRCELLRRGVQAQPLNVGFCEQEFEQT
T1 sequence (P07686 122-556): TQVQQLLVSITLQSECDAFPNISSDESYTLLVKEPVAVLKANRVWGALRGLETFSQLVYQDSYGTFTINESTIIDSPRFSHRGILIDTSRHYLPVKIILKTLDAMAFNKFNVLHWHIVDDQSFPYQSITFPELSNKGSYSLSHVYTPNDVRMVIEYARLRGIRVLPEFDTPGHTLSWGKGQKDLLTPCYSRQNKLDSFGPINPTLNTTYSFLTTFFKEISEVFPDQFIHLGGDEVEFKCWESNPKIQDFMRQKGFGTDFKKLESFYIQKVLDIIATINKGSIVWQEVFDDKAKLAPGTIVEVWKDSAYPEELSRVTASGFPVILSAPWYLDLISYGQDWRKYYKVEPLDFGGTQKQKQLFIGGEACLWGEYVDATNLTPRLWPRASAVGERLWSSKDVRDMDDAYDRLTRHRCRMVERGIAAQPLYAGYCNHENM

[1] = tested on: GLA mutants (alpha-galactosidase A); conditions: for enzyme activity of GLA mutants, compound in combination with DGJ: 40 μM compound + 20 μM DGJ, compared to DGJ alone, DGJ-responsive mutants, FIG. 3, FIG. 6
[2] = Plasma concentration and absorption (literature); format: in vivo, human; conditions: 32 mg tablet; estimate
[3] = cited from earlier work
[4] = target: acid α-glucosidase mutants (Homo sapiens, UniProt P10253, Y455F); format: cell-based; conditions: 20 μM DNJ + 40 μM compound; FIG. 11
acid α-glucosidase mutants (Homo sapiens, UniProt P10253, Y455F), sequence (P10253 70-952 Y455F): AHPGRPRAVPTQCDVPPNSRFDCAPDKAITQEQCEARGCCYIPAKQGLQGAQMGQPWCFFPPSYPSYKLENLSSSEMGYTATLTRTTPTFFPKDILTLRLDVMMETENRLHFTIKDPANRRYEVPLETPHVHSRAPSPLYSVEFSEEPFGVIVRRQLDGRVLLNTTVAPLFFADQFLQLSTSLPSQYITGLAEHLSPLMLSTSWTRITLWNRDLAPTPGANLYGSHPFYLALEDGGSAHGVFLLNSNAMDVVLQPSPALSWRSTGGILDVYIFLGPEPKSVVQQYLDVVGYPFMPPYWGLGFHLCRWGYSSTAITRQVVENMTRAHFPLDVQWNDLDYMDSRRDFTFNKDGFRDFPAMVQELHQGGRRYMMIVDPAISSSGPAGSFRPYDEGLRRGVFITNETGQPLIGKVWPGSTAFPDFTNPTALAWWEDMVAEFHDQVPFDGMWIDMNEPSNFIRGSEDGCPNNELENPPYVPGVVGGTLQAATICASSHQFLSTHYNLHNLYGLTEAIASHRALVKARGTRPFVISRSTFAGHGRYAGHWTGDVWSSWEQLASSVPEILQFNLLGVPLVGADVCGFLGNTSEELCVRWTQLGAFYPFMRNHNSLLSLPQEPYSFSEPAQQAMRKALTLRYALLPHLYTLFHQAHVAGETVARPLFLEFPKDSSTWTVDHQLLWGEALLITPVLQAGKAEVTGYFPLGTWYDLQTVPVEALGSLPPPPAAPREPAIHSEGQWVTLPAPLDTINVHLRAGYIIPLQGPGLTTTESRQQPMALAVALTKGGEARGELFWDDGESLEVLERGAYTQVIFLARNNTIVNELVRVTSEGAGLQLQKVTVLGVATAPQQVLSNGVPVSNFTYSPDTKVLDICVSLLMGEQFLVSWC
Procedure: (§1) A bacterial clone containing the full length cDNA of […] (IRATp970C0971D, aligned to accession no. NM_000152.3, GeneBank) was received form ImaGenes GmbH, Berlin, Germany. Amplification was performed with the primers 5′-TAGGAGCTGTCCAGGCCATC-3′ (SEQ ID NO:3) and 5′-GAGAGACTAACACACTCCGC-3′ (SEQ ID NO:4). The PCR was carried out using iProof DNA Polymerase (BioRad). The cDNA was subcloned into pCRII TA TOPO vector (Invitrogen). Prior to ligation, the cDNA insert was incubated with Taq polymerase (Qiagen) to add a poly (A) overhang at the 3′-end for TA-cloning. For expression, the GAA cDNA was ligated into target vector pcDNA3.1/V5-His6 (Invitrogen) using sticky end ligation utilizing unique restriction sites (HindIII, XhoI) offered by both vectors multiple cloning sites.
(§2) Sample preparation was carried out analogously to the α-galactosidase A recordings. As substrate, a 1.3 mg 4-Methylumbelliferyl-α-D-Glukopyranoside/ml solution (in sodium acetate buffer, pH 4.0) was used and 5 μg sample/reaction were added. The reaction was incubated for 60 minutes at 37° C. and stopped with 1M Glycine-NaOH, pH 10.5.

mutant GLA [5] = conditions: washout two hours prior to assay; cited from earlier work
GLA[A156V] = target: T2, GLA[A156V] (Homo sapiens, UniProt P06280, A156V); format: cell-based; conditions: for mutant enzyme activity in combination with DGJ: concentration of SF-54B and SF-55C 10 μM and 40 μM, respectively; for mutant enzyme activity in combination with DGJ, concentration series: increasing concentrations of compound with DGJ, FIG. 10
T2 sequence (P06280 32-429 A156V): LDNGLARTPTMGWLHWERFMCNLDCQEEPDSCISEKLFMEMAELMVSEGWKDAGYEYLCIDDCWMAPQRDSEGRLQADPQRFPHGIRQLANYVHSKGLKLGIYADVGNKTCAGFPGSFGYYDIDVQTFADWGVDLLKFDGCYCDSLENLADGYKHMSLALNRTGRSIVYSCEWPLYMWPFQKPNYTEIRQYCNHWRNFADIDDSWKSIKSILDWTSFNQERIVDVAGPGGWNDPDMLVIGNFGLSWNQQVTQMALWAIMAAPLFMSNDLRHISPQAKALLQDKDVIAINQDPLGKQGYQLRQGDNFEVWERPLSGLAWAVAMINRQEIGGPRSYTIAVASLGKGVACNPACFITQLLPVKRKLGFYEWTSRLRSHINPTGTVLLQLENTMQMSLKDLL

mutant GLA [6] = conditions: cell-free; cited from earlier work
GLA[R301G] = target: T3, GLA[R301G] (Homo sapiens, UniProt P06280, R301G); format: cell-based
T3 sequence (P06280 32-429 R301G): T2 sequence (P06280 32-429 A156V) with V125A, R270G

GLA = conditions: patient lymphoblasts; cited from earlier work
Alpha-Gal A = conditions: grown in the presence of DGJ, cited from earlier work
[7] = target: acid α-glucosidase mutants (Homo sapiens, UniProt P10253, L552P); format: cell-based; conditions: 20 μM DNJ + 40 μM compound; FIG. 11B
acid α-glucosidase mutants (Homo sapiens, UniProt P10253, L552P), sequence (P10253 70-952 L552P): as the sequence (P10253 70-952 Y455F) above, with F386Y, L483P counted along it
Procedure: as §1, §2

[8] = tested on: acid α-glucosidase mutants; format: cell-based; conditions: 20 μM NB-DNJ alone; FIG. 7A
Procedure: as §1, §2

[9] = value with superscript 2 (mark not explained)
[10] = value with superscript 1 (mark not explained)

CC(=O)NC1CNC(CO)[C@@H](O)C1O (stereo partly drawn) [2-Acetamido-1,2-dideoxynojirimycin]
Ki (hexosaminidase A; [9]): 0.7 µM

CC(=O)NC1C(O)NC(CO)[C@@H](O)C1O (stereo partly drawn) [2-Acetamido-2-deoxynojirimycin (ADNJ), 2-Acetamido-2-deoxynojirimycin]
Ki (hexosaminidase A; [9]): 0.005 µM

CC(=O)NC1CN2CC[C@H](O)C2[C@@H](O)C1O (stereo partly drawn) [6-Acetamido-6-deoxycastanospermine]
IC50 (hexosaminidase A; [10]): 0.5 µM

CN(Cc1cc(Br)cc(Br)c1N)C1CCCCC1 [Bromhexine, 2,4-dibromo-6-{[cyclohexyl(methyl)amino]methyl}aniline]
difference of protein activity between Bromhexine and DGJ and Ambroxol and DGJ ([1]; 40 μM Bromhexine or Ambroxol + 20 μM DGJ, FIG. 6): no significant difference
alpha-Galactosidase A activity of mutant GLAs, bromhexine alone ([1]; 40 μM Bromhexine without DGJ, FIG. 6): no effect
enzyme activity of GLA mutants, compound in combination with DGJ [1]: significantly increased
enzyme activity of GLA mutants, compound in combination with DGJ ([1]; listed as bromhexine): increased
resulting concentration referring to blood volume after first pass loss [2]: approximately 0.7 μM
intestinal absorption ([3]; 32 mg tablet (77.6 μmol)): 22-27%
concentration of bromhexine ([3]; Bechgaard et al.): 0.08 µM
increase in the activity of acid α-glucosidase mutant Y455F, compound with DNJ compared to DNJ alone [4]: comparable

OC[C@H]1NC[C@H](O)[C@@H](O)[C@H]1O [DGJ, 1-Deoxygalactonojirimycin]
concentration tolerated without any detectable inhibition of the tested mutant enzyme (mutant GLA [5]): up to 1 mM
increase of GLA[A156V] activity (GLA[A156V]; 20 μM DGJ alone, no Ambroxol, untreated = 1.0, FIG. 5A): 3.8 fold and 4 fold
concentration of DGJ reaching the same effect as 20 μM DGJ alone (GLA[A156V]; with 40 μM Ambroxol in addition, GLA[A156V]): 8.9 µM
dosages already inhibiting (mutant GLA [6]): below 1 μM
increase of GLA[R301G] activity (GLA[R301G]; 20 μM DGJ without Ambroxol, untreated = 1.0, FIG. 5B): 2.8 fold
concentration of DGJ sufficient to reach the level of 20 μM DGJ alone (GLA[R301G]; in combination with 40 μM Ambroxol, mutant not named in the block): 4.72 µM
share of the DGJ concentration needed compared to DGJ alone (GLA[R301G]; in combination with 40 μM Ambroxol, same increase of protein activity): ~25%
clinically achievable concentration ([3]; clinical trials, Wu et al.): 10 µM
concentration beyond which GLA activity decreases (GLA): > 100 µM
Alpha-Gal A activity (Alpha-Gal A; other mutations): unaffected
Alpha-Gal A activity (Alpha-Gal A; several mutations): more than 50 % of normal

CC(=O)N[C@H]1C(O)O[C@H](CO)[C@H](O)[C@@H]1O (stereo partly drawn) [N-Acetyl-galactosamine (GalNAc), N-Acetyl-galactosamine]
Ki (hexosaminidase A; [10]): 0.0019 µM

CN(Cc1cc(C#N)cc(C#N)c1N)C1CCCCC1 [SF-54B]
mutant enzyme activity in combination with DGJ (GLA[A156V]; 20 μM DGJ, FIG. 9): high increase
mutant enzyme activity in combination with DGJ, concentration series (GLA[A156V]): high increase
increase in the activity of acid α-glucosidase mutant Y455F, compound with DNJ compared to DNJ alone [4]: comparable

CN(Cc1cc(C#N)cc(Br)c1N)C1CCCCC1 [SF-55C]
mutant enzyme activity in combination with DGJ (GLA[A156V]; 20 μM DGJ, FIG. 9): high increase
mutant enzyme activity in combination with DGJ, concentration series (GLA[A156V]): high increase
increase in the activity of acid α-glucosidase mutant Y455F, compound with DNJ compared to DNJ alone [4]: comparable

Cc1cc(C)cc(-c2cc(CN(C)C3CCCCC3)c(N)c(-c3cc(C)cc(C)c3)c2)c1 [SF-80]
concentration in combination with DGJ giving an increase as high as Ambroxol at up to 10 μM with DGJ (GLA[A156V]; 20 μM DGJ, FIG. 9): 1 µM

N#Cc1cc(C#N)c(N)c(CNC2CCC(O)CC2)c1 (stereo not drawn) [SF-124B]
increase in the activity of acid α-glucosidase mutant Y455F, compound with DNJ compared to DNJ alone [4]: comparable
increase in the activity of mutant L552P, compound with DNJ compared to DNJ only [7]: higher

CC(=O)Nc1c(Br)cc(Br)cc1CN(C)C1CCCCC1 [SF-150B]
mutant enzyme activity in combination with DGJ, concentration series (GLA[A156V]): high increase
increase in the activity of acid α-glucosidase mutant Y455F, compound with DNJ compared to DNJ alone [4]: higher
increase in the activity of mutant L552P, compound with DNJ compared to DNJ only [7]: higher

CC(=O)OC1CCC(NCc2cc(Br)cc(Br)c2N)CC1 (stereo not drawn) [SF-153B]
mutant enzyme activity in combination with DGJ, concentration series (GLA[A156V]): high increase
increase in the activity of acid α-glucosidase mutant Y455F, compound with DNJ compared to DNJ alone [4]: higher
increase in the activity of mutant L552P, compound with DNJ compared to DNJ only [7]: higher

N-butyl-DNJ [NB-DNJ]
enzyme activity of mutations Y455F, P545L and L552P, NB-DNJ [8]: significantly increased
